What is called EC50 is the midpoint of the concentration-response curve. Higher therefore signals lower potency in that assay.

Where only a bound is given, the exact number is not on record here.

Serine/threonine-protein kinase PLK1, sequence (P53350 whole entry): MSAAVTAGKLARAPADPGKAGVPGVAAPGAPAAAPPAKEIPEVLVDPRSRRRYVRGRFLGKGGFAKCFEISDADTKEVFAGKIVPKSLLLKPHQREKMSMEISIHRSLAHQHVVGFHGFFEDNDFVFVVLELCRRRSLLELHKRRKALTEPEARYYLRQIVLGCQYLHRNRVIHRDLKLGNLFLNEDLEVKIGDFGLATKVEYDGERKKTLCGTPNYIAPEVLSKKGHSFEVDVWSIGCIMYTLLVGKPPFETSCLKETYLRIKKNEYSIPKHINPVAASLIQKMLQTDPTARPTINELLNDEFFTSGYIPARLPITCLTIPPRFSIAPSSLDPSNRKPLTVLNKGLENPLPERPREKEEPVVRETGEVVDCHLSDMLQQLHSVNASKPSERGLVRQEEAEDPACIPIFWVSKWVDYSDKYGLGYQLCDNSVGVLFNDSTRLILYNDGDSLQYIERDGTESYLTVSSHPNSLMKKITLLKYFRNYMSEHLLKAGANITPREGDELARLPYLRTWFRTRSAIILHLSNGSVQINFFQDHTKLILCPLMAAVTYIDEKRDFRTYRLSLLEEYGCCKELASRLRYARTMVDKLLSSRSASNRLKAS

This experiment concerns the target Serine/threonine-protein kinase PLK1 (Homo sapiens, UniProt P53350). As to the kind of experiment: H2O2 production by redox-active compounds – biochemical, 1 mM DTT, artefact control for Plk1 PBD inhibitor project, dose response (AID 936).
`O=C(CNS(=O)(=O)c1ccc(Br)s1)N1CCCC1` [5-bromanyl-N-(2-oxidanylidene-2-pyrrolidin-1-yl-ethyl)thiophene-2-sulfonamide] displayed an EC50 of over 50 µM.

Regarding `Cc1ccc(NC(=O)C2CC=CCC2C(=O)N2CCCCC2)cc1` (configuration not stated) [6-(Piperidine-1-carbonyl)-cyclohex-3-enecarboxylic acid p-tolylamide], the EC50 was over 50 µM.

In the case of `COc1ccc2c3c(cccc13)NN=C2C` [6-Methoxy-3-methyl-1H-benzo[de]cinnoline], the EC50 was over 50 µM.

On to `Cc1ccc(Cl)cc1N1CCN(S(=O)(=O)c2ccc3c(c2)oc(=O)n3C)CC1` [6-[4-(5-chloranyl-2-methyl-phenyl)piperazin-1-yl]sulfonyl-3-methyl-1,3-benzoxazol-2-one], for which the EC50 was over 50 µM.

`CC(C)Nc1nnc(SCC(=O)c2c(N)n(Cc3ccccc3)c(=O)n(C)c2=O)s1` [6-amino-1-benzyl-3-methyl-5-[2-[[5-(propan-2-ylamino)-1,3,4-thiadiazol-2-yl]sulfanyl]acetyl]pyrimidine-2,4-dione] showed a concentration giving a half-maximal response (EC50) of over 50 µM.

In turn, `O=C1CCN2C=Nc3cccc4ccc1c2c34` [7,8-dihydro-9H-pyrido[1,2,3-cd]perimidin-9-one] displayed an EC50 of over 50 µM.

As to `CCOC(=O)c1c2c(n(C)c1C)C(=O)C(=O)c1ccc(Br)cc1-2` [8-bromo-2,3-dimethyl-4,5-dioxo-1-benzo[e]indolecarboxylic acid ethyl ester], the EC50 stood at 0.723 µM.

Compound `Oc1ccc2ccc3cccc[n+]3c2c1` [9-benzo[c]quinolizin-11-iumol;iodide] gave an EC50 of over 50 µM.

In turn, `COc1ccc(N(C)C2=NS(=O)(=O)c3ccccc32)cc1` [(1,1-Dioxo-1H-1lambda*6*-benzo[d]isothiazol-3-yl)-(4-methoxy-phenyl)-methyl-amine] gave an EC50 of over 50 µM.

For `CC1Cc2ccccc2N1C(=O)c1ccc2c(c1)nnn2C` (configuration not stated) [(1-methyl-5-benzotriazolyl)-(2-methyl-2,3-dihydroindol-1-yl)methanone], the EC50 was over 50 µM.

Take `COc1cccc(OC)c1C(=O)N1CCN(c2ccccn2)CC1` [(2,6-dimethoxyphenyl)-(4-pyridin-2-ylpiperazin-1-yl)methanone]: the EC50 was over 50 µM.

Compound `O=[N+]([O-])c1ccc(N2CCNCC2)cc1NCC1CCCO1` (configuration not stated) [(2-nitro-5-piperazino-phenyl)-(tetrahydrofurfuryl)amine] returned an EC50 of over 50 µM.

In turn, `CCOC(=O)Cc1csc(NC(=O)CSc2nnc(-c3ccc(F)cc3)o2)n1` [(2-{2-[5-(4-Fluoro-phenyl)-[1,3,4]oxadiazol-2-ylsulfanyl]-acetylamino}-thiazol-4-yl)-acetic acid ethyl ester] yielded an EC50 of over 50 µM.

`CCc1noc(C)c1C(=O)N1CCOCC1` [(3-ethyl-5-methyl-1,2-oxazol-4-yl)-morpholin-4-yl-methanone] gave an EC50 of over 50 µM.

The compound `CC1Cn2c(nnc2-c2cc3ccccc3cc2O)S1` (configuration not stated) [(3E)-3-(6-methyl-5,6-dihydro-2H-[1,3]thiazolo[2,3-c][1,2,4]triazol-3-ylidene)naphthalen-2-one] had an EC50 of over 50 µM.

In the case of `COc1ccc2c(c1OC)C(=O)OC2CC(=O)O` (configuration not stated) [(4,5-dimethoxy-3-oxo-1,3-dihydro-2-benzofuran-1-yl)acetic acid], the EC50 is over 50 µM.

`Nc1cc2nsnc2cc1Br` [(6-bromopiazthiol-5-yl)amine]: the EC50 is over 50 µM.

With `OCC(CO)(CO)N=Cc1cc(Br)ccc1O` [(6E)-4-bromanyl-6-[[[2-(hydroxymethyl)-1,3-bis(oxidanyl)propan-2-yl]amino]methylidene]cyclohexa-2,4-dien-1-one], the EC50 is over 50 µM.

`C/C(=C\C(=O)Nc1cc(C)on1)c1ccccc1` [(E)-N-(5-methyl-1,2-oxazol-3-yl)-3-phenyl-but-2-enamide] registered an EC50 of over 50 µM.

In turn, `CCC(=O)N1CCN(c2ccc(NC(=O)c3ccc4c(c3)OCO4)cc2)CC1` [Benzo[1,3]dioxole-5-carboxylic acid [4-(4-propionyl-piperazin-1-yl)-phenyl]-amide] displayed an EC50 of over 50 µM.

In turn, `O=C(NC1(C(F)(F)F)NC(=O)N(CC2CCCCC2)C1=O)c1ccco1` (configuration not stated) [MLS000040678] returned an EC50 of over 50 µM.

`CCn1ccc(C(=O)Nc2ccc(N(C)C(C)=O)cc2)n1` [MLS000043435] displayed an EC50 of over 50 µM.

For `Cc1ccccc1NS(=O)(=O)c1cc(C(=O)NCc2ccco2)ccc1C` [MLS000052108], the EC50 was over 50 µM.

The compound `c1ccc(NCc2nnc3n2CCCCC3)cc1` [MLS000057041] had an EC50 of over 50 µM.

Consider `CCc1nc2cc(Cl)c(Cl)cc2[nH]1` [MLS000064722], for which the EC50 was over 50 µM.

`COc1ccc(C(C)C)cc1S(=O)(=O)Nc1ccc(Cl)cn1` [MLS000071127]: the EC50 was over 50 µM.

For the compound `O=C1C(=C2C(=O)c3ccccc3C2=O)Nc2ccccc21` [MLS000071738], the EC50 was over 50 µM.

`CCC(=O)Nc1ccc(-c2nnc(SCC(=O)Nc3nccs3)n2C)cc1` [MLS000076456] displayed an EC50 of over 50 µM.

Turning to `CC(C)OCCCNC(=O)c1ccc(NC(=O)C2CCCO2)cc1` (configuration not stated) [MLS000086701], the EC50 is over 50 µM.

In turn, `CCOCCCNC(=O)CCCOc1ccccc1` [MLS000088375] returned a concentration for a half-maximal effect (EC50) of over 50 µM.

As to `CC(C)=CC(=O)NCCc1ccccc1` [MLS000089152], the EC50 is over 50 µM.

`O=C(COc1ccccc1)Nc1ccc(S(=O)(=O)N2CCOCC2)cc1` [MLS000108227] came in with an EC50 of over 50 µM.

With `CCC(C)c1ccc(NC(=O)C2CC2)cc1` (configuration not stated) [MLS000110184], the EC50 is over 50 µM.

For `O=C(Nc1nc2ccccc2s1)c1cc2c(s1)-c1ccccc1OC2` [MLS000522634], the EC50 was over 50 µM.

Regarding `Cn1cc(SCC(=O)Nc2ccc3c(c2)OCCO3)c2ccccc21` [MLS000529783], the EC50 is over 50 µM.

In turn, `CCC(=O)Nc1ccccc1C(=O)NC1CCCCC1` [MLS000538265] came in with an EC50 of over 50 µM.

`Cc1[nH]n2c(=O)cc(-c3ccc([N+](=O)[O-])cc3)nc2c1-c1ccccc1` [MLS000547439]: the EC50 was over 50 µM.

`CCOc1ccccc1N1CCN(C2=C(NS(=O)(=O)c3cccs3)C(=O)c3ccccc3C2=O)CC1` [MLS000551587] displayed an EC50 of over 50 µM.

In turn, `O=C(NCCc1ccccc1)/C(=C\c1ccc([N+](=O)[O-])cc1)NC(=O)c1ccccc1` [MLS000575866] yielded an EC50 of over 50 µM.

`O=C(NC1(O)C(=O)c2ccccc2C1=O)c1ccccc1` [N-(2-hydroxy-1,3-dioxo-2-indenyl)benzamide] showed an EC50 of over 50 µM.

`CC(=O)N(N=C1Sc2ccccc2C1=O)c1ccccc1C` [N-(2-methylphenyl)-N-[(3-oxo-1-benzothiophen-2-ylidene)amino]acetamide] displayed an EC50 of over 50 µM.

`CC(=O)N(N=C1Sc2ccccc2C1=O)c1cccc(C)c1` [N-(3-methylphenyl)-N-[(3-oxidanylidene-1-benzothiophen-2-ylidene)amino]ethanamide] had an EC50 of over 50 µM.

`CC(C)N(Cc1cc2ccccc2[nH]c1=O)C(=O)c1cccnc1` [N-[(2-oxo-1H-quinolin-3-yl)methyl]-N-propan-2-ylpyridine-3-carboxamide] showed an EC50 of over 50 µM.

`CC(=O)N(N=C1Sc2ccccc2C1=O)c1ccccc1` [N-[(Z)-(3-ketobenzothiophen-2-ylidene)amino]-N-phenyl-acetamide] registered an EC50 of over 50 µM.

For `Cc1cccc2[nH]c3c(N4CCN(C(=O)c5ccco5)CC4)ncnc3c12` [SMR000148910], the EC50 is over 50 µM.

Compound `NC(=O)C1CCN(C2=C(Cl)C(=O)c3ccccc3C2=O)CC1` [SMR000180199] displayed an EC50 of over 50 µM.

`COC(=O)c1ccccc1NC1=CC(=NS(=O)(=O)c2cccs2)c2ccccc2C1=O` [methyl 2-[[(4E)-1-oxidanylidene-4-thiophen-2-ylsulfonylimino-naphthalen-2-yl]amino]benzoate] yielded an EC50 of over 50 µM.

Values taken from BindingDB's records for doi:10.7270/Q2N58JS6 (University of Pittsburgh, 2007).
